Columns and labels:
[1] = molecular target: T1, human CRF1 receptor (Homo sapiens, UniProt P34998); test: Measurement of CRF Binding Inhibitory Rate (receptor binding experiment with 125I-CRF); details: human CRF1 receptor expressing CHO cellular membrane fraction, 50 pM 125I-CRF, room temperature 1.5 hr, 0.05 nM to 10 μM of compound; read-out: IC50 values (CRF binding inhibition)
T1 construct: expressed in transfected cells; host or cells: CHO cells (membrane fraction)
T1 sequence (P34998 24-415): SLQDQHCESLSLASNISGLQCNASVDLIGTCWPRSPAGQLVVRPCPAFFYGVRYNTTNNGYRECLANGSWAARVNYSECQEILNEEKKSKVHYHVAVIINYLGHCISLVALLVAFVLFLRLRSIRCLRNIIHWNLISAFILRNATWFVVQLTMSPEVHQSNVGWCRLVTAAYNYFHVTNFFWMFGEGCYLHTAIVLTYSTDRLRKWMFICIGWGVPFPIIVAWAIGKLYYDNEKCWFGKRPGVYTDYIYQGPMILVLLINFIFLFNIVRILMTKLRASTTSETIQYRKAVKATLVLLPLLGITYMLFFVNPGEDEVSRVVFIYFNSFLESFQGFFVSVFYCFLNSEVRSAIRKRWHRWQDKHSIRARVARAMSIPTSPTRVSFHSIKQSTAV

Row | SMILES | IC50 [1] | melting point
1 | CC/C(=N/OC)c1ccc(Cl)c2nc3n(c12)CCCN3c1ccc(Cl)cc1Cl [Example 122, (1Z)-1-[9-Chloro-1-(2,4-dichlorophenyl)-1,2,3,4-tetrahydropyrimido[1,2-a]benzimidazol-6-yl]propan-1-one O-methyloxime] | < 1000 nM | 144 to 145 °C
2 | CCN(CC)c1cccc2nc3n(c12)CC(O)CCN3c1ccc(Cl)cc1Cl (centres unmarked) [Example 70, 1-(2,4-Dichlorophenyl)-7-(diethylamino)-2,3,4,5-tetrahydro-1H-[1,3]diazepino[1,2-a]benzimidazol-4-ol] | < 1000 nM | 207 to 208 °C
3 | CCC(CC)c1ccc(Cl)c2nc3n(c12)CCCCN3c1ccc(C(=O)NC)cc1C [Example 49, 4-[10-Chloro-7-(1-ethylpropyl)-2,3,4,5-tetrahydro-1H-[1,3]diazepino[1,2-a]benzimidazol-1-yl]-N,3-dimethylbenzamide] | < 1000 nM | 127 to 128 °C
4 | CCC(OC(=O)C1CC1)c1ccc(Cl)c2nc3n(c12)CCCN3c1ccc(OC)nc1C (centres unmarked) [Example 268, 1-[9-Chloro-1-(6-methoxy-2-methylpyridin-3-yl)-1,2,3,4-tetrahydropyrimido[1,2-a]benzimidazol-6-yl]propyl cyclopropanecarboxylate] | < 1000 nM | 149 to 151 °C
5 | CCC(CC)c1ccc(Cl)c2nc3n(c12)CCN3c1ccc(Br)cc1Cl [Example 12, 1-(4-Bromo-2-chlorophenyl)-8-chloro-5-(1-ethylpropyl)-2,3-dihydro-1H-imidazo[1,2-a]benzimidazole] | < 1000 nM | 165 to 168 °C
6 | O=C(OC(c1ccc(Cl)c2nc3n(c12)CCCN3c1ccc(Cl)cc1Cl)C1CC1)C1CC1 (centres unmarked) [Example 478, 1-[9-Chloro-1-(2,4-dichlorophenyl)-1,2,3,4-tetrahydropyrimido[1,2-a]benzimidazol-6-yl](cyclopropyl)methyl cyclopropanecarboxylate] | < 1000 nM | 168 to 170 °C
7 | CCc1cc(CC)n(-c2ccc(Cl)c3nc4n(c23)CCCN4c2ccc(Cl)cc2Cl)n1 [Example 197, 9-Chloro-1-(2,4-dichlorophenyl)-6-(3,5-diethyl-1H-pyrazol-1-yl)-1,2,3,4-tetrahydropyrimido[1,2-a]benzimidazole] | < 1000 nM | 185 to 187 °C
8 | CCC(OC(C)=O)c1ccc(Cl)c2nc3n(c12)CCCN3c1cnc(N(C)C)cc1C (centres unmarked) [Example 155, 1-{9-Chloro-1-[6-(dimethylamino)-4-methylpyridin-3-yl]-1,2,3,4-tetrahydropyrimido[1,2-a]benzimidazol-6-yl}propyl acetate] | < 1000 nM | 159 to 160 °C
9 | COC(c1ccc(Cl)c2nc3n(c12)CCCN3c1ccc(Cl)cc1Cl)C(F)(F)F (centres unmarked) [Example 309, 9-Chloro-1-(2,4-dichlorophenyl)-6-(2,2,2-trifluoro-1-methoxyethyl)-1,2,3,4-tetrahydropyrimido[1,2-a]benzimidazole] | < 1000 nM | 161 to 163 °C
10 | CCC(COC)c1ccc(Cl)c2nc3n(c12)CCCN3c1ccc(Cl)cc1Cl (centres unmarked) [Example 149, 9-Chloro-1-(2,4-dichlorophenyl)-6-[1-(methoxymethyl)propyl]-1,2,3,4-tetrahydropyrimido[1,2-a]benzimidazole] | < 1000 nM | 130 to 131 °C
11 | CCC(CC(N)=O)c1cccc2nc3n(c12)CCCN3c1ccc(Cl)cc1Cl (centres unmarked) [Example 205, 3-[1-(2,4-Dichlorophenyl)-1,2,3,4-tetrahydropyrimido[1,2-a]benzimidazol-6-yl]pentanamide] | < 1000 nM | 132 to 133 °C
12 | COC(c1cccc2nc3n(c12)CCCN3c1ccc(Cl)cc1Cl)C(F)(F)F (centres unmarked) [Example 202, 1-(2,4-Dichlorophenyl)-6-(2,2,2-trifluoro-1-methoxyethyl)-1,2,3,4-tetrahydropyrimido[1,2-a]benzimidazole] | < 1000 nM | 164 to 165 °C
13 | CCC(CC)c1ccc(Cl)c2nc3n(c12)CCCCN3c1ncc(C(N)=O)cc1C [Example 340, 6-[10-Chloro-7-(1-ethylpropyl)-2,3,4,5-tetrahydro-1H-[1,3]diazepino[1,2-a]benzimidazol-1-yl]-5-methylpyridine-3-carboxamide] | < 1000 nM | 234 to 235 °C
14 | CCC(CC(C)=O)c1ccc(Cl)c2nc3n(c12)CCCN3c1ccc(Cl)cc1Cl (centres unmarked) [Example 452, 4-[9-Chloro-1-(2,4-dichlorophenyl)-1,2,3,4-tetrahydropyrimido[1,2-a]benzimidazol-6-yl]hexan-2-one] | < 1000 nM | 195 to 197 °C
15 | CCN(CC)c1cccc2nc3n(c12)CCCN3c1nnc(Cl)cc1C [Example 80, 1-(6-Chloro-4-methylpyridazin-3-yl)-N,N-diethyl-1,2,3,4-tetrahydropyrimido[1,2-a]benzimidazol-6-amine] | < 1000 nM | 193 to 195 °C
16 | CCC(OC(=O)COC)c1ccc(Cl)c2nc3n(c12)CCCN3c1ccc(Cl)cc1Cl (centres unmarked) [Example 432, 1-[9-Chloro-1-(2,4-dichlorophenyl)-1,2,3,4-tetrahydropyrimido[1,2-a]benzimidazol-6-yl]propyl methoxyacetate] | < 1000 nM | 156 to 158 °C
17 | CCC(OC(C)=O)c1ccc(Cl)c2nc3n(c12)CCN3c1c(C)cc(Cl)cc1Cl (centres unmarked) [Example 437, 1-[8-Chloro-1-(2,4-dichloro-6-methylphenyl)-2,3-dihydro-1H-imidazo[1,2-a]benzimidazol-5-yl]propyl acetate] | < 1000 nM | 190 to 192 °C
18 | Cc1cc(Cl)cc(Cl)c1N1CCCn2c1nc1c(Cl)ccc(C(O)(C3CC3)C3CC3)c12 [Example 138, [9-Chloro-1-(2,4-dichloro-6-methylphenyl)-1,2,3,4-tetrahydropyrimido[1,2-a]benzimidazol-6-yl](dicyclopropyl)methanol] | < 1000 nM | 210 to 212 °C
19 | COc1nc(C)nc(OC)c1N1CCCn2c1nc1c(Cl)ccc(C(O)(C3CC3)C3CC3)c12 [Example 174, [9-Chloro-1-(4,6-dimethoxy-2-methylpyrimidin-5-yl)-1,2,3,4-tetrahydropyrimido[1,2-a]benzimidazol-6-yl](dicyclopropyl)methanol] | < 1000 nM | 204 to 205 °C
20 | Cc1nc(OC(F)F)nc(C)c1N1CCCn2c1nc1c(Cl)ccc(C(OC(F)F)C(F)(F)F)c12 (centres unmarked) [Example 216, 9-Chloro-1-[2-(difluoromethoxy)-4,6-dimethylpyrimidin-5-yl]-6-[1-(difluoromethoxy)-2,2,2-trifluoroethyl]-1,2,3,4-tetrahydropyrimido[1,2-a]benzimidazole] | < 1000 nM | 165 to 166 °C
21 | CCC(OC(C)=O)c1ccc(Cl)c2nc3n(c12)CCCN3c1ccc(OC)cc1Cl (centres unmarked) [Example 260, 1-[9-Chloro-1-(2-chloro-4-methoxyphenyl)-1,2,3,4-tetrahydropyrimido[1,2-a]benzimidazol-6-yl]propyl acetate] | < 1000 nM | 178 to 180 °C
22 | CCC(OCC(F)(F)F)c1ccc(Cl)c2nc3n(c12)CCCN3c1ccc(N(C)C)nc1C (centres unmarked) [Example 167, 5-{9-Chloro-6-[1-(2,2,2-trifluoroethoxy)propyl]-3,4-dihydropyrimido[1,2-a]benzimidazol-1(2H)-yl}-N,N,6-trimethylpyridin-2-amine] | < 1000 nM | 144 to 146 °C
23 | CCCOc1ccc(N2CCCn3c2nc2c(Cl)ccc(C(OC(F)F)C(F)(F)F)c23)c(C)n1 (centres unmarked) [Example 289, 9-Chloro-6-[1-(difluoromethoxy)-2,2,2-trifluoroethyl]-1-(2-methyl-6-propoxypyridin-3-yl)-1,2,3,4-tetrahydropyrimido[1,2-a]benzimidazole] | < 1000 nM | 156 to 158 °C
24 | CCN(CC)c1cc(F)cc2nc3n(c12)CCCN3c1ccc(Cl)cc1Cl [Example 335, 1-(2,4-Dichlorophenyl)-N,N-diethyl-8-fluoro-1,2,3,4-tetrahydropyrimido[1,2-a]benzimidazol-6-amine] | < 1000 nM | 142 to 145 °C
25 | CCC(CC)c1ccc(Cl)c2nc3n(c12)CCCCN3c1ccc(C(N)=O)cc1C [Example 48, 4-[10-Chloro-7-(1-ethylpropyl)-2,3,4,5-tetrahydro-1H-[1,3]diazepino[1,2-a]benzimidazol-1-yl]-3-methylbenzamide] | < 1000 nM | 185 to 186 °C
26 | COc1ccc(C(O)(C2CC2)C2CC2)c2c1nc1n2CCCN1c1ccc(Cl)cc1Cl [Example 369, Dicyclopropyl[1-(2,4-dichlorophenyl)-9-methoxy-1,2,3,4-tetrahydropyrimido[1,2-a]benzimidazol-6-yl]methanol] | < 1000 nM | 219 to 220 °C
27 | CCC(OC1CC1)c1ccc(Cl)c2nc3n(c12)CCCN3c1ccc(Cl)cc1Cl (centres unmarked) [Example 306, 9-Chloro-6-[1-(cyclopropyloxy)propyl]-1-(2,4-dichlorophenyl)-1,2,3,4-tetrahydropyrimido[1,2-a]benzimidazole] | < 1000 nM | 147 to 149 °C
28 | Cc1cc(Cl)cc(Cl)c1N1CCn2c1nc1c(Cl)ccc(C(O)(C3CC3)C3CC3)c12 [Example 426, [8-Chloro-1-(2,4-dichloro-6-methylphenyl)-2,3-dihydro-1H-imidazo[1,2-a]benzimidazol-5-yl](dicyclopropyl)methanol] | < 1000 nM | 193 to 196 °C
